Data set [1] concerns MCF-7 cells. As to the kind of experiment: Cytotoxicity in MCF-7 cells, WST-1 assay. Format: cell-based, human. As to conditions: for EC50 values against MCF-7 cells, in words / EC50 / IC50 / cytotoxicity / anticancer activity in MCF-7 cells, comparative statement: 24 h compound treatment, WST-1; for EC50: read-out: EC50, viability of MCF-7 cells; for IC50: read-out: IC50 value / antiproliferation activity in MCF-7 cells. From the text: The absorbance at 420 nm and 630 nm was then acquired using a BioTek Synergy H1 microplate reader. Cell viability results were plotted in GraphPad Prism 7.
A general note: Tetrazolium assays rely on reduction of a dye to a coloured formazan, in cell work by metabolically active cells.

The target of data set [2] is T1, BRAT1 (Homo sapiens, UniProt Q6PJG6).
T1 sequence (Q6PJG6 1-821): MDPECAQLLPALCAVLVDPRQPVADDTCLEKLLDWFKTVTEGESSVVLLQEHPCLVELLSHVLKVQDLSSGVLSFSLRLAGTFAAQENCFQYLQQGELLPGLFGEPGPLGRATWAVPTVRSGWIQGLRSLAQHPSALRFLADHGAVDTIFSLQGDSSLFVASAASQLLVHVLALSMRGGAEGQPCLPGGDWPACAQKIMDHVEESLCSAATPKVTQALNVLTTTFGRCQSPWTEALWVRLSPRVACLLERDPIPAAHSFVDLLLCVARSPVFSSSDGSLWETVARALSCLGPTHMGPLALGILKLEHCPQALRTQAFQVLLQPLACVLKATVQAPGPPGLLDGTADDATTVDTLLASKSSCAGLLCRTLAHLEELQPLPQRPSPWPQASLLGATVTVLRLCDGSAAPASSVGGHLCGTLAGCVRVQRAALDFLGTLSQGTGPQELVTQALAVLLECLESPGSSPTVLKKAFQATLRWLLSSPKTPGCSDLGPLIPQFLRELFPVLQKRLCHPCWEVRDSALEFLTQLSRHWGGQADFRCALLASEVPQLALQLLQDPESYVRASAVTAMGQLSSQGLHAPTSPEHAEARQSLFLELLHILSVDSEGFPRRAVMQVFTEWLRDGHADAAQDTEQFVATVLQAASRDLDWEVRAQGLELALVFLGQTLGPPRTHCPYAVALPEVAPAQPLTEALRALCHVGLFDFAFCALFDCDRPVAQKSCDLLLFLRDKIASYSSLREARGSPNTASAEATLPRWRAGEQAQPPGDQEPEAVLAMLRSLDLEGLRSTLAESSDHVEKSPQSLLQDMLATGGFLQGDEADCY
Description: BRAT1 protein level after 1d treatment (global proteomics, Western blot). It is filed as cell-based. Details: endogenous in cells; host or cells: HeLa, MCF-7, MDA-MB-231 (live cells or HeLa lysate). As to conditions: added for the final 4 hours of 1d treatment. For orientation: Immunoblotting shows a protein as a band on a membrane.

Data set [3] relates to HeLa cells. As to the kind of experiment: Global proteomics profiling using LC-MS/MS. It is filed as cell-based, human. As to conditions: 3 μM, 24 h, among 3347 quantified proteins.
Data set [4] deals with T1, BRAT1. Description: In situ dose response via competitive pulldown assay with probe 37. Format: cell-based. The protocol:
HeLa (2.0e6) cells were seeded in 60 mm dishes. […] The lysates were prepared and quantified as described above. Lysates (2 mg/mL, 140 μL) was treated with 10 μM 37 (50× stock in DMSO) for one hour at r.t. and then subjected to click chemistry with biotin azide as described above for one hour at r.t. Proteins were precipitated, re-solubilized in 0.2% SDS in PBS, enriched with 50 μL streptavidin beads, and washed as described above. Proteins were eluted using 30 μL SDS-PAGE reducing loading buffer (4×), subjected to 10 min heat denaturation (95° C.), separated using a 11% SDS-PAGE gel, and visualized via Western blotting as described above. Images were quantified with ImageJ. EC50 and Kitz-Wilson binding constants were calculated using GraphPad Prism 7.

In data set [5] the target is T1, BRAT1. Description: In situ competitive MS-based target identification. It is filed as cell-based. As to conditions: MCF-7 cells, 30 μM 1d 4 hours, 10 μM 37. The procedure:
MCF-7 (8e6) cells were seeded in 10 cm Petri dishes and incubated overnight. […] Lysate was prepared as described above. Lysate (2 mg/mL, 0.75 mL) was treated with 10 μM 37 (50× stock in DMSO) for one hour at r.t. and then subjected to click chemistry. […] (Click Chemistry Tools, 50 μM, 50× stock in DMSO), tris(2-carboxyethyl)phosphine hydrochloride (TCEP) (1 mM, Sigma-Aldrich C4706-2G, 50× fresh stock in water), tris[(1-benzyl-1H1,2,3-triazol-4-yl)methyl]amine (TBTA) (100 μM, Click Chemistry Tools, 16× stock in DMSO:tBuOH 1:4), and copper(II) sulfate (Sigma-Aldrich, 1 mM, 50× stock in water) were added to the proteome and left to react for one hour at r.t. […] Samples were analyzed by LC-MS/MS (see below) and the MS data was processed with MaxQuant (see below).
Peptides were resuspended in water with 0.1% formic acid (FA) and analyzed using EASY-nLC 1200 nano-UHPLC coupled to Q Exactive HF-X Quadrupole-Orbitrap mass spectrometer (Thermo Scientific). […]
The MS data was analyzed with MaxQuant9 (V1.6.1.0)^7 and searched against the human proteome (Uniprot) and a common list of contaminants (included in MaxQuant). […] The minimum peptide length was set to 6 amino acids and peptide re-quantification, label-free quantification (MaxLFQ) and “match between runs” were enabled. […]

Data set [6] concerns the target T2, FLAG-BRAT1 (Homo sapiens, UniProt Q6PJG6).
T2 construct: expressed in transfected cells; host or cells: HEK-293T, transient transfection, lysate
T2 sequence (Q6PJG6 1-821): T1 sequence (Q6PJG6 1-821)
Description: Thermal shift assay of FLAG-BRAT1 via Western blotting. The settings on record: HEK-293T lysate, 30 μM, 34° C. to 61° C. Format: binding. The protocol: HEK-293T (8e6) cells were seeded in a 10 cm dish in DMEM without pen-strep. After incubating overnight, 24 μg of FLAG-BRAT1 pExp plasmid was incubated for 15 min at r.t. with 96 μL of PEI MAX™ 40K (Polysciences 24765-1) in final volume of 2 mL Opti-MEM (Gibco 11058021). The mixture was then carefully added to the cells. After 24 hours, the cells were carefully washed twice with PBS, and the lysate was prepared by sonication in PBS as described above.
The supernatant was carefully isolated. SDS-PAGE reducing loading buffer (4×) was added to the isolated supernatant, and proteins were transferred to a PVDF (0.2 μm) membrane using wet transfer with tris-glycine transfer buffer (20% methanol) for one hour at 350 mA. Membrane was blocked with 5% milk in tris-buffered saline with 0.1% Tween 20 (TBST) for 30-60 minutes at r.t. and then incubated with primary rabbit polyclonal BRAT1 antibody (Novus NB100-2256, 1:2000 in 5% milk in TBST) overnight shaking at 4° C. Membrane was washed three times for five min with TBST and incubated with anti-rabbit Alexa Fluor 647 (Jackson ImmunoResearch Inc., 1:500 in 5% milk in TBST) for one hour at r.t. Membrane was then washed 3× with TBST and visualized with an Azure Biosystems Sapphire Biomolecular Imager. […]

In data set [7] the test system is HeLa, MCF-7 and MDA-MB-231 cells. As to the kind of experiment: Transwell migration assay. The settings on record: 1 μM, 24 hours, all cell lines. Format: cell-based, human.
The target in data set [8] is T1, BRAT1. Description: In situ competitive pulldown assay via Western blotting. Format: cell-based. More on the design: endogenous in cells; host or cells: HeLa, MCF-7, MDA-MB-231 (live cells or HeLa lysate).
Data set [9] has as its target T1, BRAT1. As to the kind of experiment: Competitive BRAT1 pulldown with iodoacetamide (binding reversibility). More on the design: endogenous in cells; host or cells: HeLa (HeLa lysate). As to conditions: HeLa lysate, IAA 30 mM 1 h pre- or posttreatment, 37 10 μM. The protocol: To evaluate the binding reversibility, we performed a competitive BRAT1 pulldown assay with the irreversible cysteine-reactive probe iodoacetamide (IAA). HeLa lysate was treated with 37 (10 μM) for 1 h with either pre- or posttreatment with IAA (30 mM) for 1 h followed by enrichment and Western blot analysis as described above.

Like-named read-outs stand apart in the source and are kept apart here. Peptide text beside a SMILES is read from it. * marks the point of attachment. Cbz = O=C(OCc1ccccc1)*

As for `C=C(C)C1CCC(=C)C2C3=C(C[C@H](C)C3=O)C(=O)C(C)=C[C@@H]12` (single isomer, unassigned; (-)) [1b, (−)-Curcusone B], in data set [1], the “EC50 values against MCF-7 cells, in words” value is on record as “micromolar”. Moreover, the “cytotoxicity value of synthetic sample versus naturally isolated counterpart” value in [1] (MCF-7 cells) was “virtually identical”.

Turning to `CC(C)C[C@@H](C=O)NC(=O)[C@H](CC(C)C)NC(=O)[C@H](CC(C)C)NC(=O)OCc1ccccc1` [MG132] (Cbz-Leu-Leu-Leu-aldehyde), the “BRAT1 protein levels with proteasome inhibitor” value in data set [2] is listed as “recovered BRAT1 protein levels”.

Consider `C=C(C)C1CCC(=C)C2C3=C(CC(C)(O)C3=O)C(=O)C(C)=CC12` (single isomer, unassigned; (-)) [1d, (−)-Curcusone D], for which the “number of down-regulated proteins” value in data set [3] is 42. In addition, the “number of up-regulated proteins” value in [3] was found to be 36. In addition, the EC50 – broadly, the concentration giving half of the maximal effect – came out at 2.7 µM in data set [4] (in situ treatment of live HeLa cells, read-out: EC50, competition of BRAT1 enrichment by 37) and 13.8 µM in data set [1] (Homo sapiens, MCF7). Further, in [4] (live HeLa cells, 4 h), the “concentration at 50% fractional occupancy (f occ. (50)) of BRAT1” value turned out to be 2.7 µM. The “EC50 values against MCF-7 cells, in words” value in [1] was “micromolar”. Also, the “protein competed from probe 37 enrichment” value in [5] is “best competed target was BRAT1”. Besides, the “thermal stability of FLAG-BRAT1” value in data set [6] was “thermal destabilization”. Besides, the “reduction of cell migration” value in data set [7] was about 4 fold. Further, the “competition of BRAT1 enrichment by 37” value in data set [8] (HeLa and MDA-MB-231 cells) is “competed the enrichment of BRAT1”; in [8] (MCF-7 cells, 4 hours), “competed”.

Take `NC(=O)CI` [IAA, iodoacetamide]: in [9], the “competition of BRAT1 enrichment by 37” value is given as “competed BRAT1 enrichment by 37”.

As to `C=C(C)[C@H]1CCC(=C)[C@@H]2[C@@H]1C=C(C)C(=O)[C@]21CC=C(C)C1=O` [compound 3, (+)-Spirocurcasone], in data set [1], the IC50 was 62.7 µM.

For the compound (−)-dimericursone A [2a], in data set [1], the “cytotoxicity / anticancer activity in MCF-7 cells, comparative statement” value was “no toxicity” and the EC50 is over 100 µM.

Take (−)-pyracurcasone [compound 33]: in data set [1], the “cytotoxicity / anticancer activity in MCF-7 cells, comparative statement” value is reported as “slightly better antiproliferation activity” and the IC50 was determined as 8 µM.

The record behind these values is patent US12617745B2, “Curcusone diterpenoids and uses thereof” (Purdue Research Foundation, priority 2020, dated 2026).
